Tests used:
[1] = system: Pontederia vaginalis; experiment: Herbicidal activity against Monochoria vaginalis assessed as killing at 50 g/ha pre-emergence application under paddy conditions; type: functional
[2] = system: Echinochloa oryzicola; experiment: Herbicidal activity against Echinochloa oryzicola assessed as killing at 50 g/ha pre-emergence application under paddy conditions; type: functional
[3] = Herbicidal activity against broadleaf weed assessed as killing at 50 g/ha pre-emergence application under paddy conditions; type: functional
[4] = system: Schoenoplectiella juncoides; experiment: Herbicidal activity against Schoenoplectiella juncoides assessed as killing at 50 g/ha pre-emergence application under paddy conditions; type: functional
[5] = system: Oryza sativa; experiment: Toxicity in Oryza sativa (rice) assessed as injury at 25 g/ha pre-emergence application under paddy conditions by crop safety assay; type: organism-based; settings: in vivo, other
[6] = Herbicidal activity against broadleaf weed assessed as killing at 25 g/ha pre-emergence application under paddy conditions; type: functional
[7] = system: Schoenoplectiella juncoides; experiment: Herbicidal activity against Schoenoplectiella juncoides assessed as killing at 25 g/ha pre-emergence application under paddy conditions; type: functional
[8] = system: Pontederia vaginalis; experiment: Herbicidal activity against Monochoria vaginalis assessed as killing at 25 g/ha pre-emergence application under paddy conditions; type: functional
[9] = system: Echinochloa oryzicola; experiment: Herbicidal activity against Echinochloa oryzicola assessed as killing at 25 g/ha pre-emergence application under paddy conditions; type: functional
[10] = system: Oryza sativa; experiment: Toxicity in Oryza sativa (rice) assessed as injury at 50 g/ha pre-emergence application under paddy conditions by crop safety assay; type: organism-based; settings: in vivo, other
[11] = Octanol-water partition coefficient, log K of the compound; type: physicochemical; settings: read-out: log K
[12] = system: Echinochloa oryzicola; experiment: Herbicidal activity against Echinochloa oryzicola assessed as killing pre-emergence application under paddy conditions; type: functional
[13] = system: Zea mays; experiment: Herbicidal activity against Zea mays (maize)assessed as killing at 500 g/ha pre-emergence application upland paddy conditions measured after 14 days; type: functional
[14] = system: Chenopodium album; experiment: Herbicidal activity against Chenopodium album assessed as killing at 500 g/ha pre-emergence application upland paddy conditions measured after 14 days; type: functional
[15] = system: Echinochloa crus-galli; experiment: Herbicidal activity against Echinochloa crus-galli (barnyard grass) assessed as killing at 500 g/ha pre-emergence application upland paddy conditions measured after 14 days; type: functional
[16] = system: Digitaria ciliaris; experiment: Herbicidal activity against Digitaria ciliaris assessed as killing at 500 g/ha pre-emergence application upland paddy conditions measured after 14 days; type: functional

| SMILES | Activity [1] | Activity [2] | Activity [3] | Activity [4] | Activity [5] | Activity [6] | Activity [7] | Activity [8] | Activity [9] | Activity [10] | logP [11] | log(1/ED80) [12] | Activity [13] | Activity [14] | Activity [15] | Activity [16] |
| --- | --- | --- | --- | --- | --- | --- | --- | --- | --- | --- | --- | --- | --- | --- | --- | --- |
| CC(C)CC(C(=O)OC(C)C)S(=O)(=O)c1ncn(C(=O)N(C(C)C)C(C)C)n1 (stereo not given) | 10% | 60% | 60% | 30% | – | – | – | – | – | – | – | – | – | – | – | – |
| CCN(CC)C(=O)n1cnc(S(=O)(=O)C(CC(C)C)C(=O)OCC(C)C)n1 (stereo not given) | 100% | 80% | 60% | 100% | 10% | 30% | 30% | 40% | 40% | 10% | 1.03 | 0.91 | – | – | – | – |
| CC(C)CC(C(=O)OC(C)C)S(=O)(=O)c1ncn(C(=O)N2CCCC2)n1 (stereo not given) | 10% | 40% | 30% | 10% | – | – | – | – | – | 10% | – | – | – | – | – | – |
| CC(C)CC(C(=O)OC(C)C)S(=O)(=O)c1ncn(C(=O)N2CCOCC2)n1 (stereo not given) | 10% | 10% | 10% | 10% | – | – | – | – | – | – | – | – | – | – | – | – |
| CC(C)CC(C(=O)OC(C)C)S(=O)(=O)c1ncn(C(=O)N(C)C2CCCCC2)n1 (stereo not given) | 10% | 30% | 50% | 10% | – | – | – | – | – | – | – | – | – | – | – | – |
| CCCCC(C(=O)OC)S(=O)(=O)c1ncn(C(=O)N(CC)CC)n1 (stereo not given) | 40% | 90% | 30% | 10% | – | – | – | – | – | 10% | 0.69 | 0.9 | 50% | 100% | 90% | 90% |
| CCC(C)C(C(=O)OC)S(=O)(=O)c1ncn(C(=O)N(CC)CC)n1 (stereo not given) | 60% | 100% | 80% | 90% | – | – | – | – | – | 10% | 0.66 | 0.95 | 40% | 100% | 90% | 100% |
| CC(C)CC(C(=O)OC(C)C)S(=O)(=O)c1ncn(C(=O)N(C)C)n1 (stereo not given) | 10% | 60% | 40% | 10% | – | – | – | – | – | – | – | – | – | – | – | – |
| CCN(CC)C(=O)n1cnc(S(=O)(=O)C(C)C(=O)OC)n1 (stereo not given) | 10% | 10% | 10% | 10% | – | – | – | – | – | 10% | 0.41 | -0.1 | 20% | 60% | 60% | 80% |
| CCN(CC)C(=O)n1cnc(S(=O)(=O)C(C(=O)OC)C(C)C)n1 (stereo not given) | 100% | 100% | 90% | 100% | – | – | – | – | – | 40% | 0.56 | 1.24 | 30% | 90% | 80% | 90% |
| CCCC(C(=O)OC)S(=O)(=O)c1ncn(C(=O)N(CC)CC)n1 (stereo not given) | 60% | 100% | 60% | 60% | – | – | – | – | – | 10% | 0.58 | 1.14 | 50% | 100% | 100% | 100% |
| CCN(CC)C(=O)n1cnc(S(=O)(=O)C(CC(=O)OC)C(=O)OC)n1 (stereo not given) | 10% | 10% | 10% | 10% | – | – | – | – | – | 10% | 0.45 | -0.04 | 10% | 30% | 50% | 60% |
| CCC(C)CC(C(=O)OC)S(=O)(=O)c1ncn(C(=O)N(CC)CC)n1 (stereo not given) | 40% | 90% | 80% | 80% | – | – | – | – | – | 10% | 0.79 | 0.99 | 20% | 100% | 90% | 90% |
| C=CC(C)C(C(=O)OC)S(=O)(=O)c1ncn(C(=O)N(CC)CC)n1 (stereo not given) | 10% | 60% | 10% | 10% | – | – | – | – | – | 10% | 0.63 | 0.65 | 70% | 90% | 90% | 90% |
| CCN(CC)C(=O)n1cnc(S(=O)(=O)CCC(C)C)n1 | 10% | 100% | 50% | 10% | – | – | – | – | – | 10% | – | – | – | – | – | – |
| CCN(CC)C(=O)n1cnc(S(=O)(=O)C(CC2CC2)C(=O)OC)n1 (stereo not given) | 100% | 100% | 90% | 60% | – | – | – | – | – | 10% | 0.6 | 0.95 | 60% | 100% | 90% | 90% |
| CCN(CC)C(=O)n1cnc(S(=O)(=O)C(C(=O)OC)C2CCCC2)n1 (stereo not given) | 100% | 100% | 90% | 100% | – | – | – | – | – | 10% | 0.69 | 1.27 | 80% | 90% | 90% | 90% |
| CCN(CC)C(=O)n1cnc(S(=O)(=O)C(CCCC#N)C(=O)OC)n1 (stereo not given) | 10% | 10% | 10% | 10% | – | – | – | – | – | 10% | 0.41 | 0.05 | 70% | 90% | 90% | 90% |
| CCC(C(=O)OC)S(=O)(=O)c1ncn(C(=O)N(CC)CC)n1 (stereo not given) | 10% | 60% | 10% | 10% | – | – | – | – | – | 10% | 0.49 | 0.74 | 30% | 40% | 60% | 50% |
| C=C(C)CC(C(=O)OC)S(=O)(=O)c1ncn(C(=O)N(CC)CC)n1 (stereo not given) | 100% | 90% | 90% | 60% | – | – | – | – | – | 10% | 0.63 | 0.95 | 40% | 100% | 100% | 100% |
| CCN(CC)C(=O)n1cnc(S(=O)(=O)CC(=O)OC)n1 | 10% | 10% | 10% | 10% | – | – | – | – | – | 10% | 0.36 | 0.18 | 10% | 30% | 40% | 50% |
| CCN(CC)C(=O)n1cnc(S(=O)(=O)C(CC2CCCCC2)C(=O)OC)n1 (stereo not given) | 10% | 100% | 50% | 10% | – | – | – | – | – | 10% | 0.94 | 1.2 | 20% | 40% | 40% | 10% |
| CCN(CC)C(=O)n1cnc(S(=O)(=O)C(Cc2ccccc2)C(=O)OC)n1 (stereo not given) | 10% | 50% | 10% | 10% | – | – | – | – | – | 10% | 0.69 | 0.6 | 10% | 30% | 10% | 10% |
| CCN(CC)C(=O)C(CC(C)C)S(=O)(=O)c1ncn(C(=O)N(CC)CC)n1 (stereo not given) | 10% | 10% | 10% | 10% | – | – | – | – | – | 20% | – | – | – | – | – | – |
| CC(C)CC(C(=O)OC(C)C)S(=O)(=O)c1ncn(C(=O)N(C)c2ccccc2)n1 (stereo not given) | 10% | 20% | 40% | 10% | – | – | – | – | – | – | – | – | – | – | – | – |
| CCN(CC)C(=O)n1cnc(S(=O)(=O)C(C(=O)OC)C2CC2)n1 (stereo not given) | 10% | 10% | 10% | 10% | – | – | – | – | – | 10% | 0.47 | 0.24 | 20% | 80% | 90% | 100% |
| CCC(CC)C(C(=O)OC)S(=O)(=O)c1ncn(C(=O)N(CC)CC)n1 (stereo not given) | 100% | 100% | 90% | 80% | – | – | – | – | – | 10% | 0.76 | 1.4 | 30% | 90% | 100% | 90% |

— ChEMBL document CHEMBL3044861, “Synthesis and Herbicidal Activity of New 2-(1-Carbamoyl-1, 2, 4-triazol-3-ylsulfonyl) alkanoates” (J Pestic Sci, 2002)
